Assay results as given in patent US6569850B1, “Treatment of multiple sclerosis (MS) and other demyelinating conditions using lofepramine in combination with L-phenylalanine, tyrosine or tyrptophan and possibly a vitamin B12 compound” (priority 1994, dated 2003).
Entries after “also recorded” stand apart in the source; their conditions may differ.

Experiment: Treatment of patients with Multiple Sclerosis (case histories and patient series)
Assay type: in vivo, human
Details: for Contribution of the component to the therapeutic effect in MS: added to the antidepressant regime
Protocol: Over 100 other patients have done well on a similar regime, although some have been given other antidepressants either of the traditional tricyclic class, such as amitriptyline or imipramine, or the newer specialist serotonin uptake inhibitors or monoamine oxidase inhibitors. Four particular instances are given in the appendix. […] The doses of LPA have also varied from about 100 mg to up to 5 g per day, but best results are obtained with doses in the region of 500-2000 mg/day. The doses of antidepressants (with the proviso that minimum effective and maximum safe levels are determined according to the drug), lie broadly in the range 10 mg to 200 mg per day.
A specific example of the use of the treatment is 70 mgs (half the therapeutic starting dose for depression) of lofepramine taken each morning with 500 mgs of L-phenylalanine, and 500 mgs of L-phenylalanine taken mid afternoon. For patients with the regular MS attacks of chronic progressive MS it is desirable to include an 8-10 week course of 1000 micrograms of hydroxocobalamin (intra muscular) per week at the start of treatment and then 1000 micrograms every ten days thereafter.

| Compound | Contribution of the component to the therapeutic effect in MS | Comparative therapeutic result among antidepressants in MS treatment (antidepressant combined with neurotransmitter precursor) |
| --- | --- | --- |
| N[C@@H](Cc1ccccc1)C(=O)O [L-phenylalanine (LPA), L-phenylalanine] | contributes to the therapeutic effect |  |
| CN(CCCN1c2ccccc2CCc2ccccc21)CC(=O)c1ccc(Cl)cc1 [lofepramine] |  | best results; also recorded: Most have done best |
| vitamin B12 | does have a beneficial effect; also recorded: the treatment works best |  |
